Measured values reported in ChEMBL document CHEMBL5321216, “Discovery of bipyridine amide derivatives targeting pRXRα-PLK1 interaction for anticancer therapy” (Eur J Med Chem, 2023).
The source made the active and inactive calls. The rule behind the calls is not given here.

Tests used:
[1] = tested on: A549; assay: Antiproliferative activity against human A549 cells assessed as cell viability rate at 5 uM incubated for 72 hrs by MTT assay relative to control; format: functional
[2] = tested on: HCC1937; assay: Antiproliferative activity against human HCC1937 cells assessed as inhibition of cell proliferation incubated for 72 hrs by MTT assay; format: functional, cell-based; settings: HCC1937, 72 h
[3] = Cytotoxicity against human L02 cells assessed as inhibition of cell proliferation incubated for 72 hrs by MTT assay; format: toxicity, cell-based
[4] = Selectivity index, ratio of IC50 for human A549 cells to IC50 for human MDA-MB-231 cells; format: functional
[5] = tested on: MDA-MB-231; assay: Induction of apoptosis in human MDA-MB-231 cells assessed as reduction in Mcl-1 protein expression measured after 24 hrs by Western blot analysis; format: functional, cell-based; settings: dose 7.8-500 nM
[6] = tested on: MDA-MB-231; assay: Induction of apoptosis in human MDA-MB-231 cells assessed as reduction in Bcl-2 protein expression measured after 24 hrs by Western blot analysis; format: functional, cell-based; settings: dose 7.8-500 nM
[7] = tested on: MDA-MB-231; assay: Induction of apoptosis in human MDA-MB-231 cells assessed as increase in cleaved PARP expression measured after 24 hrs by Western blot analysis; format: functional, cell-based; settings: dose 7.8-500 nM
[8] = tested on: A549; assay: Induction of apoptosis in human A549 cells assessed as dead cells at 250 nM incubated for 24 hrs by annexin V-FITC/PI staining based flow cytometry analysis (reference value: 0.75%); format: functional
[9] = tested on: A549; assay: Induction of apoptosis in human A549 cells assessed as late apoptotic cells at 250 nM incubated for 24 hrs by annexin V-FITC/PI staining based flow cytometry analysis (reference value: 5.28%); format: functional
[10] = tested on: A549; assay: Induction of apoptosis in human A549 cells assessed as live cells at 250 nM incubated for 24 hrs by annexin V-FITC/PI staining based flow cytometry analysis (reference value: 93.2%); format: functional
[11] = tested on: A549; assay: Induction of apoptosis in human A549 cells assessed as late apoptotic cells at 62.5 nM incubated for 24 hrs by annexin V-FITC/PI staining based flow cytometry analysis (reference value: 5.28%); format: functional
[12] = molecular target: Nuclear receptor subfamily 4immunitygroup A member 1 (Homo sapiens) (UniProt P22736); assay: Antagonist activity at Nur77 (unknown origin) transfected in human HeLa cells at 31.25 uM incubated for 24 hrs by dual luciferase reporter assay; format: cell-based
Nuclear receptor subfamily 4immunitygroup A member 1 (Homo sapiens), sequence (P22736 whole entry): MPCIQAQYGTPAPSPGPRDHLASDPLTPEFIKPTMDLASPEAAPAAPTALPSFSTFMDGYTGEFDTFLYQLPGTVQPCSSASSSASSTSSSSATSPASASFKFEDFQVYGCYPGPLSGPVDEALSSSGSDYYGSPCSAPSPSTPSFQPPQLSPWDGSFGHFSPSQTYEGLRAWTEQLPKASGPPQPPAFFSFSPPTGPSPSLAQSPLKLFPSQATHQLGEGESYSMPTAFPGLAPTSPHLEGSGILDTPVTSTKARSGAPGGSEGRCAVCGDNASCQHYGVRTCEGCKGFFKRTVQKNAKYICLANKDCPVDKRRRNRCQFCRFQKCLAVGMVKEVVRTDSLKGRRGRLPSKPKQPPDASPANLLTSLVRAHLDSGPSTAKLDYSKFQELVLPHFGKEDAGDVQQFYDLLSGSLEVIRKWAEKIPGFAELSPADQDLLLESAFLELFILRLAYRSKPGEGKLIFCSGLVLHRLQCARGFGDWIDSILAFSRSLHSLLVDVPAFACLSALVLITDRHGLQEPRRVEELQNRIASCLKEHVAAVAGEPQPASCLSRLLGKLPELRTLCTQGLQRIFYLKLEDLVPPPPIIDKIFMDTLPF

[13] = tested on: MDA-MB-231; assay: Induction of cell cycle arrest in human MDA-MB-231 cells assessed as accumulation of cells at S phase at 15.625 nM incubated for 12 hrs by flow cytometry analysis (reference value: 40.89%); format: functional; settings: 0.01562 µM
[14] = tested on: MDA-MB-231; assay: Induction of cell cycle arrest in human MDA-MB-231 cells assessed as accumulation of cells at G2 phase at 31.25 nM incubated for 12 hrs by flow cytometry analysis (reference value: 15.91%); format: functional
[15] = tested on: MDA-MB-231; assay: Induction of cell cycle arrest in human MDA-MB-231 cells assessed as accumulation of cells at G1 phase at 62.5 nM incubated for 12 hrs by flow cytometry analysis (reference value: 43.2%); format: functional
[16] = tested on: A549; assay: Induction of cell cycle arrest in human A549 cells assessed as accumulation of cells at G1 phase at 31.25 nM incubated for 12 hrs by flow cytometry analysis (reference value: 59.57%); format: functional
[17] = tested on: A549; assay: Induction of cell cycle arrest in human A549 cells assessed as accumulation of cells at S phase at 31.25 nM incubated for 12 hrs by flow cytometry analysis (reference value: 31.81%); format: functional
[18] = tested on: A549; assay: Induction of cell cycle arrest in human A549 cells assessed as accumulation of cells at G2 phase at 31.25 nM incubated for 12 hrs by flow cytometry analysis (reference value: 8.62%); format: functional
[19] = tested on: A549; assay: Induction of cell cycle arrest in human A549 cells assessed as accumulation of cells at G1 phase at 62.5 nM incubated for 12 hrs by flow cytometry analysis (reference value: 59.57%); format: functional
[20] = tested on: A549; assay: Induction of cell cycle arrest in human A549 cells assessed as accumulation of cells at S phase at 62.5 nM incubated for 12 hrs by flow cytometry analysis (reference value: 31.81%); format: functional
[21] = tested on: A549; assay: Induction of cell cycle arrest in human A549 cells assessed as accumulation of cells at G1 phase at 125 nM incubated for 12 hrs by flow cytometry analysis (reference value: 59.57%); format: functional
[22] = tested on: MDA-MB-231; assay: Induction of apoptosis in human MDA-MB-231 cells assessed as dead cells at 62.5 nM incubated for 24 hrs by annexin V-FITC/PI staining based flow cytometry analysis (reference value: 0.69%); format: functional
[23] = tested on: MDA-MB-231; assay: Induction of apoptosis in human MDA-MB-231 cells assessed as live cells at 125 nM incubated for 24 hrs by annexin V-FITC/PI staining based flow cytometry analysis (reference value: 91.3%); format: functional
[24] = tested on: MDA-MB-231; assay: Induction of apoptosis in human MDA-MB-231 cells assessed as late apoptotic cells at 125 nM incubated for 24 hrs by annexin V-FITC/PI staining based flow cytometry analysis (reference value: 5.93%); format: functional
[25] = tested on: MDA-MB-231; assay: Induction of apoptosis in human MDA-MB-231 cells assessed as late apoptotic cells at 250 nM incubated for 24 hrs by annexin V-FITC/PI staining based flow cytometry analysis (reference value: 5.93%); format: functional
[26] = Elimination half life in Sprague-Dawley rat at 25 mg/kg, ip measured for 48 hrs by LC-MS/MS analysis; format: ADME, organism-based; settings: in vivo, read-out: beta t1/2 (converted)
[27] = Toxicity in BALB/c mouse xenografted with human MDA-MB-231 cells assessed as lung damage at 25 mg/kg/day, ip administered for 15 days by H and E staining based analysis; format: organism-based; settings: in vivo, 360 h, time 15 day
[28] = Toxicity in BALB/c mouse xenografted with human MDA-MB-231 cells assessed as liver damage at 25 mg/kg/day, ip administered for 15 days by H and E staining based analysis; format: organism-based; settings: in vivo, 360 h, time 15 day
[29] = tested on: MDA-MB-231; assay: Effect on Nur77 protein expression in human MDA-MB-231 cells at 7.8 to 500 nM measured after 24 hrs by Western blot analysis; format: functional, cell-based; settings: dose 7.8-500 nM

O=C(/C=C/c1ccccc1)Nc1cc(-c2ccnc(N3CCC(CO)CC3)c2)ccn1
Activity [1]: 51.91%
IC50 [2]: 0.561 µM
IC50 at 72 h [3]: 0.064 µM
Ratio IC50 [4]: 12.56
Activity [5]: Dose-Dependent Effect
Activity [6]: Dose-Dependent Effect
Activity [7]: Dose-Dependent Effect
Activity [8]: 2.36%
Activity [9]: 21.4%
Activity [10]: 44.9%
Activity [11]: 18.2%
Activity [12]: inactive
Activity [13]: 41.47%
Activity [14]: 27.02%
Activity [15]: 1.81%
Activity [16]: 58.84%
Activity [17]: 32.4%
Activity [18]: 8.76%
Activity [19]: 59.43%
Activity [20]: 27.68%
Activity [21]: 16.45%
Activity [22]: 2.47%
Activity [23]: 66.9%
Activity [24]: 19.2%
Activity [25]: 20.2%
half-life [26]: 2.23 h
Activity [27]: Non-Toxic
Activity [28]: Non-Toxic
Activity [29]: inactive
